Source: patent US8946268B2, “Modulators of HEC1 activity and methods therefor” (Taivex Therapeutics, Inc., priority 2010, dated 2015)

Key:
Type in all cases: cell-based
Hela = test: Antiproliferative activity (MTS assay), Hela; details: Homo sapiens, HeLa, 96 h, Hela cells
Procedure: (§1) Antiproliferative effect is expressed as IC50 values in microMolar final concentration.
(§2) Cells were grown at 37° C. in a humidified atmosphere with 5% CO2 and 95% air. Cells were seeded in 96 well tissue culture plates.
(§3) Compound treatment started after overnight incubation of cells (TO). […] Compound was added to the plate in triplicate wells, and the plates were then incubated for 96 hours. DMSO (compounds diluents) was also included and added to the plate in control wells. Cell viability was then determined by MTS assay using CellTiter 96® AQueous non-radioactive cell proliferation assay system (Promega). A plate reader (Molecular Devices, Vmax) was used to read the optical densities, and the results were used to deduce concentration-response curves. […] The results were analyzed using linear regression software (GraphPad Prism 5; GraphPad Software Inc.).
(§4) The GI50 values (growth inhibitory activity) were determined to emphasize on the correction for the cell count at time zero; thus, the % inhibition of test drug were: [1−(T−T0)/(C−T0)]×100; and these value were used to plot the concentration-response curves, and then analyzed with linear regression software (GraphPad Prism 5).

MDA-MB-231 = test: Antiproliferative activity (MTS assay), MDA-MB-231; details: Homo sapiens, MDA-MB-231, 96 h, MDA-MB-231 cells
Procedure: as §1, §2, §3, §4

K562 = test: Antiproliferative activity (MTS assay), K562; details: Homo sapiens, K562, 96 h, K562 cells
Procedure: as §1, §2, §3, §4

MDA-MB-468 = test: Antiproliferative activity (MTS assay), MDA-MB-468; details: Homo sapiens, MDA-MB-468, 96 h, MDA-MB-468 cells
Procedure: as §1, §2, §3, §4

Structure (SMILES)	IC50 (Hela)	IC50 (MDA-MB-231)	IC50 (K562)	IC50 (MDA-MB-468)
Cc1ccc(-c2csc(NC(=O)c3ccncc3)n2)cc1 [Compound 6]	1.05 µM	0.67 µM	1480 nM	1.14 µM
Cc1cc(Nc2ccccc2)c(Br)c(C)c1-c1csc(NC(=O)c2ccncc2)n1 [Compound 123]	0.87 µM	0.61 µM	330 nM	0.88 µM
COc1ccc(-c2csc(NC(=O)c3ccccn3)n2)cc1 [Compound 17]	> 10 µM	> 10 µM	> 10000 nM	> 10 µM
COc1cc(-c2csc(NC(=O)c3ccccn3)n2)ccc1O [Compound 36]	> 10 µM	> 10 µM	> 10000 nM	> 10 µM
Cc1sc(NC(=O)c2ccncc2)nc1-c1ccccc1 [Compound 2]	> 10 µM	> 10 µM	> 10000 nM	8.15 µM
Cc1cc(C)c(-c2csc(NC(=O)c3ccnc(N4CCCCC4)c3)n2)c(C)c1 [Compound 91]	> 10 µM	6.06 µM	1400 nM	4.66 µM
Cc1ccc(-c2nc(NC(=O)c3ccccn3)sc2C)cc1 [Compound 32]	> 10 µM	> 10 µM	> 10000 nM	> 10 µM
Cc1cc(C)c(-c2csc(NC(=O)/C=C/c3cccnc3)n2)c(C)c1 [Compound 103]	> 10 µM	1.11 µM	2480 nM	2.17 µM
COc1ccc(Oc2cc(C)c(-c3csc(NC(=O)c4ccnc(N)c4)n3)c(C)c2)cc1 [Compound 128]	0.24 µM	0.16 µM	190 nM	0.16 µM
COc1ccc(-c2csc(NC(=O)c3ccccn3)n2)c(OC)c1 [Compound 18]	> 10 µM	> 10 µM	> 10000 nM	> 10 µM
Cc1cc(C)c(-c2csc(NC(=O)c3ccnc(N4CCOCC4)c3)n2)c(C)c1 [Compound 83]	2.37 µM	3.51 µM	2230 nM	4.17 µM
COc1ccc(CCC(=O)Nc2nc(-c3ccc(OC)cc3F)cs2)cc1 [Compound 22]	> 10 µM	> 10 µM	> 10000 nM	4.19 µM
COc1ccc(-c2csc(NC(=O)c3ccncc3)n2)cc1 [Compound 12]	> 10 µM	1.41 µM	3910 nM	2.88 µM
COc1cc(-c2csc(NC(=O)c3ccccn3)n2)cc(OC)c1OC [Compound 25]	> 10 µM	> 10 µM	> 10000 nM	> 10 µM
COc1ccc(-c2csc(NC(=O)c3ccnc(Cl)c3)n2)cc1 [Compound 54]	5.92 µM	4.56 µM	6650 nM	6.95 µM
Cc1cc(C)c(-c2csc(NC(=O)c3ccc4[nH]ncc4c3)n2)c(C)c1 [Compound 105]	> 10 µM	> 10 µM	> 10000 nM	8.02 µM
COc1ccc(-c2csc(NC(=O)Cc3ccccc3OC)n2)c(OC)c1 [Compound 40]	> 10 µM	> 10 µM	> 10000 nM	> 10 µM
CC(=O)Nc1cc(C(=O)Nc2nc(-c3c(C)cc(C)cc3C)cs2)ccn1 [Compound 89]	> 10 µM	> 10 µM	> 10000 nM	8.2 µM
COc1ccc(-c2csc(NC(=O)c3ccncc3)n2)c(OC)c1 [Compound 13]	> 10 µM	> 10 µM	> 10000 nM	> 10 µM
Cc1cc(S(C)(=O)=O)cc(C)c1-c1csc(NC(=O)c2ccncc2)n1 [Compound 127]	0.84 µM	0.45 µM	530 nM	0.46 µM
COc1ccccc1Oc1cc(C)c(-c2csc(NC(=O)c3ccncc3)n2)c(C)c1 [Compound 111]	0.33 µM	0.25 µM	180 nM	0.33 µM
O=C(Nc1nc(-c2c(F)cc(F)cc2F)cs1)c1ccncc1 [Compound 76]	1.12 µM	0.54 µM	940 nM	1.25 µM
Cc1ccc(-c2csc(NC(=O)c3ccccn3)n2)cc1 [Compound 29]	> 10 µM	> 10 µM	> 10000 nM	> 10 µM
O=C(Nc1nc(-c2ccc(O)cc2)cs1)c1cccnc1 [Compound 60]	> 10 µM	> 10 µM	> 10000 nM	> 10 µM
